According to patent US20240140965A1, “TRICYCLIC PESTICIDAL COMPOUNDS” (priority 2021, published 2024):

How the values were obtained:
Assay type in all cases: in vivo
[1] = system: yellow fever mosquito (Aedes aegypti); experiment: whole plant or invertebrate; details: 48 h, larval mortality after 2 days, read-out: mortality in comparison with untreated controls
Method: For evaluating control of yellow fever mosquito (Aedes aegypti) the test unit consisted of 96-well-microtiter plates containing 200 μl of tap water per well and 5-15 freshly hatched A. aegypti larvae. The active compounds were formulated using a solution containing 75% (v/v) water and 25% (v/v) DMSO. Different concentrations of formulated compounds or mixtures were sprayed onto the insect diet at 2.5 μl, using a custom built micro atomizer, at two replications. After application, microtiter plates were incubated at 28+1° C., 80+5% RH for 2 days. Larval mortality was then visually assessed.

[2] = system: boll weevil (Anthonomus grandis); experiment: Boll weevil (Anthonomus grandis) egg and larval mortality, insect diet microtiter plate; details: 120 h, read-out: mortality in comparison with untreated controls
Method: For evaluating control of boll weevil (Anthonomus grandis) the test unit consisted of 96-well-microtiter plates containing an insect diet and 5-10 A. grandis eggs. The compounds were formulated using a solution containing 75% v/v water and 25% v/v DMSO. Different concentrations of formulated compounds were sprayed onto the insect diet at 5 μl, using a custom built micro atomizer, at two replications. After application, microtiter plates were incubated at about 25±1° C. and about 75±5% relative humidity for 5 days. Egg and larval mortality was then visually assessed.

[3] = system: tobacco budworm (Heliothis virescens); experiment: Tobacco budworm (Heliothis virescens) egg and larval mortality, insect diet microtiter plate; details: 120 h, read-out: mortality in comparison with untreated controls
Method: For evaluating control of tobacco budworm (Heliothis virescens) the test unit consisted of 96-well-microtiter plates containing an insect diet and 15-25 H. virescens eggs.
The compounds were formulated using a solution containing 75% v/v water and 25% v/v DMSO. Different concentrations of formulated compounds were sprayed onto the insect diet at 10 μl, using a custom built micro atomizer, at two replications. After application, microtiter plates were incubated at about 28±1° C. and about 80±5% relative humidity for 5 days. Egg and larval mortality was then visually assessed.

[4] = system: Southern Armyworm (Spodoptera eridania), 2nd instar larvae; experiment: Southern armyworm (Spodoptera eridania) 2nd instar larvae mortality on sprayed lima bean plants; details: 96 h, read-out: mortality in comparison with untreated controls
Method: The active compounds were formulated by a Tecan liquid handler in 100% cyclohexanone as a 10,000 ppm solution supplied in tubes. The 10,000 ppm solution was serially diluted in 100% cyclohexanone to make interim solutions. These served as stock solutions for which final dilutions were made by the Tecan in 50% acetone:50% water (v/v) into 10 or 20 ml glass vials. A nonionic surfactant (Kinetic®) was included in the solution at a volume of 0.01% (v/v). The vials were then inserted into an automated electrostatic sprayer equipped with an atomizing nozzle for application to plants/insects. Lima bean plants (variety Sieva) were grown 2 plants to a pot and selected for treatment at the 1st true leaf stage. Test solutions were sprayed onto the foliage by an automated electrostatic plant sprayer equipped with an atomizing spray nozzle. The plants were dried in the sprayer fume hood and then removed from the sprayer. Each pot was placed into perforated plastic bags with a zip closure. Ten to 11 armyworm larvae were placed into the bag and the bags zipped closed. Test plants were maintained in a growth room at about 25° C. and about 20-40% relative humidity for 4 days, avoiding direct exposure to fluorescent light (14:10 light:dark photoperiod) to prevent trapping of heat inside the bags. Mortality and reduced feeding were assessed 4 days after treatment, compared to untreated control plants.

[5] = system: Green Peach Aphid (Myzus persicae); experiment: Green peach aphid (Myzus persicae) mortality on sprayed bell pepper plants; details: 120 h, read-out: mortality in comparison with untreated controls
Method: The active compounds were formulated by a Tecan liquid handler in 100% cyclohexanone as a 10,000 ppm solution supplied in tubes. The 10,000 ppm solution was serially diluted in 100% cyclohexanone to make interim solutions. These served as stock solutions for which final dilutions were made by the Tecan in 50% acetone:50% water (v/v) into 10or 20 ml glass vials. A nonionic surfactant (Kinetic®) was included in the solution at a volume of 0.01% (v/v). The vials were then inserted into an automated electrostatic sprayer equipped with an atomizing nozzle for application to plants/insects. Bell pepper plants at the first true-leaf stage were infested prior to treatment by placing heavily infested leaves from the main colony on top of the treatment plants. Aphids were allowed to transfer overnight to accomplish an infestation of 30-50 aphids per plant and the host leaves were removed. The infested plants were then sprayed by an automated electrostatic plant sprayer equipped with an atomizing spray nozzle. The plants were dried in the sprayer fume hood, removed, and then maintained in a growth room under fluorescent lighting in a 14:10 light:dark photoperiod at about 25° C. and about 20-40% relative humidity. Aphid mortality on the treated plants, relative to mortality on untreated control plants, was determined after 5 days.

[6] = system: Red Spider Mite (Tetranychus kanzawai); experiment: Red spider mite (Tetranychus kanzawai) mortality on sprayed cowpea beans; details: 72 h, read-out: mortality in comparison with untreated controls
Method: The active compound is dissolved at the desired concentration in a mixture of 1:1 (vol:vol) distilled water:acetone. Add surfactant (Kinetic) is added at a rate of 0.01% (vol/vol). The test solution is prepared at the day of use. Potted cowpea beans of 4-5 days of age are cleaned with tap water and sprayed with 1-2 ml of the test solution using air driven DeVilbiss® hand atomizer at 20-30 psi (≈1.38 to 2.07 bar). The treated plants are allowed to air dry and afterwards inoculated with 30 or more mites by clipping a cassava leaf section from rearing population. Treated plants are placed inside a holding room at about 25-26° C. and about 65-70% relative humidity. Estimate percent mortality is assessed 72 hours after treatment.

CCS(=O)(=O)c1cc(-c2ccc(F)cc2)cnc1-c1cn2c(n1)SCc1c-2cccc1C(F)(F)F [Compound I.1, 2-[3-ethylsulfonyl-5-(4-fluorophenyl)-2-pyridyl]-6-(trifluoromethyl)-5H-imidazo[1,2-a][3,1]benzothiazine]
> 70%: mortality at 80 ppm [1] | mortality at 10 ppm [2] | mortality at 30 ppm [3] | mortality at 1 ppm [4]

CCS(=O)(=O)c1cc(-c2ccc(F)cc2)cnc1-c1cn2c(n1)OCc1c-2cccc1C(F)(F)F [Compound I.3, 2-[3-ethylsulfonyl-5-(4-fluorophenyl)-2-pyridyl]-6-(trifluoromethyl)-5H-imidazo[1,2-a][3,1]benzoxazine]
> 70%: mortality at 80 ppm [1] | mortality at 10 ppm [2] | mortality at 30 ppm [3] | mortality at 90 ppm [5] | mortality at 800 ppm [6] | mortality at 1 ppm [4]

CCS(=O)(=O)c1cc(N=S(C)(C)=O)cnc1-c1cn2c(n1)COc1c-2cccc1C(F)(F)F [Compound I.5, [5-ethylsulfonyl-6-[6-(trifluoromethyl)-4H-imidazo[2,1-c][1,4]benzoxazin-2-yl]-3-pyridyl]imino-dimethyl-oxo-lambda6-sulfane]
> 70%: mortality at 250 ppm ([1]; 250 ppm) | mortality at 250 ppm [2] | mortality at 250 ppm [5]

CCS(=O)(=O)c1cc(-c2ccc(F)cc2)cnc1-c1cn2c(n1)COc1c-2cccc1C(F)(F)F [Compound I.4, 2-[3-ethylsulfonyl-5-(4-fluorophenyl)-2-pyridyl]-6-(trifluoromethyl)-4H-imidazo[2,1-c][1,4]benzoxazine]
> 70%: mortality at 80 ppm [1] | mortality at 10 ppm [2] | mortality at 30 ppm [3] | mortality at 1 ppm [4]

CCS(=O)(=O)c1cc(-c2ccc(F)cc2)cnc1-c1cn2c(n1)CSc1c-2cccc1C(F)(F)F [Compound I.2, 2-[3-ethylsulfonyl-5-(4-fluorophenyl)-2-pyridyl]-6-(trifluoromethyl)-4H-imidazo[2,1-c][1,4]benzothiazine]
> 70%: mortality at 80 ppm [1] | mortality at 10 ppm [2] | mortality at 30 ppm [3] | mortality at 90 ppm [5] | mortality at 1 ppm [4]
